The results in this text go back to paper PMC3914206.

Type in all cases: binding
Experiment [1] has as its target T1, panel of 442 kinases (Homo sapiens, UniProt Q9UBF8).
T1 construct: purchased KINOMEscan
The note with it: Compound Concentration 10 µM. From the text: (§1) We assessed the selectivity of members of this scaffold using the KINOMEscan methodology across a near comprehensive panel of 442 kinases [[18,27]].

The target in experiment [2] is T2, panel of 442 kinases (Homo sapiens, UniProt Q16659).
T2 construct: purchased KINOMEscan
T2 sequence (Q16659 whole entry): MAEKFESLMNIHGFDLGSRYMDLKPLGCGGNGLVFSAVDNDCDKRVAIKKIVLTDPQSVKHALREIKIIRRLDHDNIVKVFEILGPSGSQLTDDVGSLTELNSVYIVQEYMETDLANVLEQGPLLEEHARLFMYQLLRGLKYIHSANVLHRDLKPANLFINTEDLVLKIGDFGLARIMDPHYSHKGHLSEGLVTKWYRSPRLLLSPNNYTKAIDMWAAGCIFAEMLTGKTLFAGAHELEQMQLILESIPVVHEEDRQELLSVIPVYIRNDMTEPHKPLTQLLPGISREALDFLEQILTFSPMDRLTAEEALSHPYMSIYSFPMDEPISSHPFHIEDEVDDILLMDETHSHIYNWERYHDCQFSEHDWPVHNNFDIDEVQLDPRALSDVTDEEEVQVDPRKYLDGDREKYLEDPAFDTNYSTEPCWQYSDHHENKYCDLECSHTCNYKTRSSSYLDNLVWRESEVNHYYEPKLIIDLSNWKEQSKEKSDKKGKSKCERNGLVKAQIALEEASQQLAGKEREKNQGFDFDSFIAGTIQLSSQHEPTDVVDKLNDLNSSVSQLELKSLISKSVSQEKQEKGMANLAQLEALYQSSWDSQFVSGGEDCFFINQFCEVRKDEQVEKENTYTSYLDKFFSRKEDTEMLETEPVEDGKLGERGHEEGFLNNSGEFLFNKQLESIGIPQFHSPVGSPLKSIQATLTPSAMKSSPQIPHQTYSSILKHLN
The note with it: Compound Concentration 10 µM.
Excerpt: as §1

For experiment [3], the target named is T3, panel of 442 kinases (Homo sapiens, UniProt P53350).
T3 construct: purchased KINOMEscan
T3 sequence (P53350 whole entry): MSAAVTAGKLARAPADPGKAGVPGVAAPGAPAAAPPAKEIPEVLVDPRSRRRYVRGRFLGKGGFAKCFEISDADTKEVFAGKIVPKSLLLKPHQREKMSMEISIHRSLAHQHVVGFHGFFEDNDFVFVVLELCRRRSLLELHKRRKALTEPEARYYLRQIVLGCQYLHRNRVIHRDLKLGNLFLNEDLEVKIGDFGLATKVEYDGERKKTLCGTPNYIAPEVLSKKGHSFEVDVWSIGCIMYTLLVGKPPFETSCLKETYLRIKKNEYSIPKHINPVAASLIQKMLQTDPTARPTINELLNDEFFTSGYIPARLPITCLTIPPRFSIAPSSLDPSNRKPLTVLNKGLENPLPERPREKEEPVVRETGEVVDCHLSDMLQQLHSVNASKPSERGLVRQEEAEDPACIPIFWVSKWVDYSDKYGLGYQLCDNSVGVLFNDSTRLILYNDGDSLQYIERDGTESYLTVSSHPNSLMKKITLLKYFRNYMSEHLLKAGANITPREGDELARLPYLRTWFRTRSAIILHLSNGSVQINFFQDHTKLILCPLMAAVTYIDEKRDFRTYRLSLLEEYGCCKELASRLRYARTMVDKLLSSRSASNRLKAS
The note with it: Compound Concentration 10 µM.
Excerpt: as §1

In experiment [4] the target is T4, panel of 442 kinases (Homo sapiens, UniProt Q9H3Y6).
T4 construct: purchased KINOMEscan
T4 sequence (Q9H3Y6 whole entry): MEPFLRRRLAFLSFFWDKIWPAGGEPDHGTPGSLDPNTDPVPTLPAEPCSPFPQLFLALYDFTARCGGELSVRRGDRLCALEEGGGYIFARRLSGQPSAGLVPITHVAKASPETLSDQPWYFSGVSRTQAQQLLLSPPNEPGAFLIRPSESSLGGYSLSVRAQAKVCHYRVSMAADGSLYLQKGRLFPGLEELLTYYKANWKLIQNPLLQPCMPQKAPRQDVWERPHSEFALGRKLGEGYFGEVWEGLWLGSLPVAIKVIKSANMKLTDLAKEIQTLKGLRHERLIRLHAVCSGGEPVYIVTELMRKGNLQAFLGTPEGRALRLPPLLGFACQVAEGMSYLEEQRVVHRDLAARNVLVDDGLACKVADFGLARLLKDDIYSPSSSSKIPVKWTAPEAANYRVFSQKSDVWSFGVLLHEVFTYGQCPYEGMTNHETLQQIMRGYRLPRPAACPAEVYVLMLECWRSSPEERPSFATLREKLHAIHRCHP
The note with it: kinase SRMS; compound concentration 10 µM.
Excerpt: as §1

T1 sequence (Q9UBF8 whole entry): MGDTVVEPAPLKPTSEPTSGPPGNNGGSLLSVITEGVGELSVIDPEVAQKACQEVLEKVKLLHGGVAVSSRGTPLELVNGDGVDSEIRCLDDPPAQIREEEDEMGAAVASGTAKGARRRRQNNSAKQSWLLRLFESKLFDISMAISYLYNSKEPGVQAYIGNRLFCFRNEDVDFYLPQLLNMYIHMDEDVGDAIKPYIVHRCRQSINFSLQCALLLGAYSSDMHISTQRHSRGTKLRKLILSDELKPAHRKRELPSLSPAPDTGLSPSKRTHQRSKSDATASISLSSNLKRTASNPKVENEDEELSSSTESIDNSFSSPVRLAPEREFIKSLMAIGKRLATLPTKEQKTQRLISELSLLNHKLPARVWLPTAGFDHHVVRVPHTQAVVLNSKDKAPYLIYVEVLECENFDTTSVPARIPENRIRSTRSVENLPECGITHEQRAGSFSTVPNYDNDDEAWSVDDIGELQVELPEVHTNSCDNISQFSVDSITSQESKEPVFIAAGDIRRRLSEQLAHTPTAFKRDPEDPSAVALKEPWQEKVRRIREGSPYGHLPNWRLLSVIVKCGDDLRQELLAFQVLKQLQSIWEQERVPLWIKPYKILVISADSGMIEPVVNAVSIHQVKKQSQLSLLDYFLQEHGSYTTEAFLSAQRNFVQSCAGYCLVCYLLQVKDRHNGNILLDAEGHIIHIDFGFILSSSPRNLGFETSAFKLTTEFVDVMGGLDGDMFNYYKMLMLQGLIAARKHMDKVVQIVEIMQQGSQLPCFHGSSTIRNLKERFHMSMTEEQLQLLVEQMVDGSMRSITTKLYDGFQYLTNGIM

Regarding `CCOc1cc(C(=O)N2CCC(N3CCN(C)CC3)CC2)ccc1Nc1ncc2c(n1)N(C1CCCC1)c1ccccc1C(=O)N2C` [Compound 26], the “KINOMEscan: PIK4CB” value in experiment [1] was determined as 100. Further, the “KINOMEscan: ERK3” value in experiment [2] is on record as 100. Further, the “KINOMEscan: PLK1” value in experiment [3] came to 95. The “% Ctrl, SRMS” value in experiment [4] worked out at 82 % Ctrl.

For the compound `COc1cc(C(=O)N2CCC(N3CCN(C)CC3)CC2)ccc1Nc1ncc2c(n1)N1CCc3cccc(c31)C(=O)N2C` [Compound 24], the “KINOMEscan: PLK1” value in experiment [3] was 0.2. The “% Ctrl, SRMS” value in experiment [4] is listed as 100 % Ctrl.

For `COc1cc(C(=O)N2CCC(N3CCN(C)CC3)CC2)ccc1Nc1ncc2c(n1)N(C)c1ccccc1C(=O)N2C` [15 (LRRK2-IN-1)], in experiment [1], the “KINOMEscan: PIK4CB” value stood at 95. In addition, in experiment [2], the “KINOMEscan: ERK3” value is 100. Besides, the “KINOMEscan: PLK1” value in experiment [3] was 0.7. Further, in experiment [4], the “% Ctrl, SRMS” value was 77 % Ctrl.

As for `COc1cc(C(=O)N2CCC(N3CCN(C)CC3)CC2)ccc1Nc1ncc2c(n1)N(C1CCCC1)c1ccccc1C(=O)N2C` [Compound 25, 11-cyclopentyl-2-((2-methoxy-4-(4-(4-methylpiperazin-1-yl)piperidine-1-carbonyl)phenyl)amino)-5-methyl-5H-benzo[e]pyrimido[5,4-b][1,4]diazepin-6(11H)-one], in experiment [1], the “KINOMEscan: PIK4CB” value stood at 100. For the same compound, the “KINOMEscan: ERK3” value in experiment [2] is listed as 100. Besides, the “KINOMEscan: PLK1” value in experiment [3] was found to be 43. In experiment [4], the “% Ctrl, SRMS” value amounted to 100 % Ctrl.
